Measured values: patent publication US10428017B2, “Modulators of the cystic fibrosis transmembrane conductance regulator protein and methods of use” (AbbVie S.à.r.l., priority 2017, dated 2019)
Read-outs that look alike come from different tables or passages of the source.

Target: T1, F508delCFTR (Homo sapiens, UniProt P13569, DEL508-508)
T1 construct: expressed in transfected cells; host or cells: CFBE4lo-F508delCFTR-HRP cells (human lung derived epithelial cell line, doxycycline-inducible)
Test: Cell Surface Expression-Horse Radish Peroxidase (CSE-HRP) Assay
Assay type: cell-based
Conditions: for EC50: CFBE4lo-F508delCFTR-HRP cells, 18-24 hours at 33° C.; for Maximum % activity (with co-corrector): with co-corrector 2 μM
Protocol: Cell Surface Expression-Horse Radish Peroxidase (CSE-HRP) Assay
A cellular assay for measuring the F508delCFTR cell surface expression after correction with test compounds either without or with a co-corrector (2 μM of 3-[(2R,4R)-4-({[1-(2,2-difluoro-1,3-benzodioxol-5-yl)cyclopropyl]carbonyl}amino)-7-methoxy-3,4-dihydro-2H-chromen-2-yl]benzoic acid), was developed in human lung derived epithelial cell line (CFBE4lo−) (Veit G et al, (2012) Mol Biol Cell. 23(21): 4188-4202). The development was achieved by expressing the F508delCFTR mutation along with a horseradish peroxidase (HRP) in the fourth exofacial loop, and then measuring the HRP activity using luminescence readout from these cells, CFBE4lo-F508delCFTR-HRP, that were incubated overnight with the test corrector compounds, either without or with the co-corrector. For this primary assay, the CFBE4lo-F508delCFTR-HRP cells were plated in 384-well plates (Greiner Bio-one; Cat 781080) at 4,000 cells/well along with 0.5 μg/mL doxycycline to induce the F508delCFTR-HRP expression and further incubated at 37° C., 5% CO2 for 72 hours. The test compounds were then added either without or with a co-corrector at the required concentrations and further incubated for 18-24 hours at 33° C. The highest concentration tested was 20 μM with an 8-point concentration response curve using a 3-fold dilution in both the test compound without or with the co-corrector. Three replicate plates were run to determine one EC50. All plates contained negative controls (dimethyl sulfoxide, DMSO) and positive control (2 μM of 3-[(2R,4R)-4-({[1-(2,2-difluoro-1,3-benzodioxol-5-yl)cyclopropyl]carbonyl}amino)-7-methoxy-3,4-dihydro-2H-chromen-2-yl]benzoic acid) as well as on-plate concentration response of the positive control. Post incubation, the plates were washed 5× times with Dulbecco's phosphate buffered saline (DPBS), followed by the addition of the HRP substrate, luminol (50 μL), and measuring the HRP activity using luminescence readout on EnVision® Multilabel Plate Reader (Perkin Elmer; product number 2104-0010). The raw counts from the experiment were analyzed using Accelrys® Assay Explorer v3.3.
Z′ greater than 0.5 was used as passing quality control criteria for the plates.
The Z′ is defined as: 1−[3*SDPositive Control+3*SDNegative Control/Absolute(Meanpostivie Control−MeanNegative Control)] wherein “SD” is standard deviation.
The % activity measured at each of the 8 test concentrations of the test compound added either without or with a co-corrector (2 μM of 3-[(2R,4R)-4-({[1-(2,2-difluoro-1,3-benzodioxol-5-yl)cyclopropyl]carbonyl}amino)-7-methoxy-3,4-dihydro-2H-chromen-2-yl]benzoic acid) was normalized to the on-plate positive control using the following formulae: % activity(Test compound without co-corrector)=[(test compound without co-corrector response−DMSO response)/(positive control response−DMSO response)]*100 % activity(Test compound with co-corrector)=[(test compound with co-corrector response−DMSO response)/(positive control response−DMSO response)]*100
The maximum % activity achieved for the test compound either without or with a co-corrector at any tested concentration is presented in Table 1 along with the respective EC50's calculated using the following general sigmoidal curve with variable Hill slope equation (described as Model 42 in the Accelrys® Assay Explorer v3.3 software): y=(a−d)/(1+(x/c)^b)+d
General sigmoidal curve with concentration, response, top, bottom, EC50 and Hill slope. This model describes a sigmoidal curve with an adjustable baseline, a. The equation can be used to fit curves where response is either increasing or decreasing with respect to the independent variable, “x”.
“x” is a concentration of drug under test.
“a” is the maximum response, and “d” is the minimum response
“c” is the inflection point (EC50) for the curve. That is, “y” is halfway between the lower and upper asymptotes when x=c.
“b” is the slope-factor or Hill coefficient. […]

[1] = test compound without co-corrector, HRP luminescence readout, read-out: EC50 (without co-corrector)
[2] = test compound without co-corrector, maximum at any tested concentration (up to 20 μM), normalized to on-plate positive control (2 μM co-corrector)
[3] = with co-corrector 2 μM 3-[(2R,4R)-4-({[1-(2,2-difluoro-1,3-benzodioxol-5-yl)cyclopropyl]carbonyl}amino)-7-methoxy-3,4-dihydro-2H-chromen-2-yl]benzoic acid, read-out: EC50 (with co-corrector)
[4] = maximum at any tested concentration (up to 20 μM), normalized to on-plate positive control (2 μM co-corrector)

T1 sequence (P13569 with tags, fused parts or gaps DEL508-508): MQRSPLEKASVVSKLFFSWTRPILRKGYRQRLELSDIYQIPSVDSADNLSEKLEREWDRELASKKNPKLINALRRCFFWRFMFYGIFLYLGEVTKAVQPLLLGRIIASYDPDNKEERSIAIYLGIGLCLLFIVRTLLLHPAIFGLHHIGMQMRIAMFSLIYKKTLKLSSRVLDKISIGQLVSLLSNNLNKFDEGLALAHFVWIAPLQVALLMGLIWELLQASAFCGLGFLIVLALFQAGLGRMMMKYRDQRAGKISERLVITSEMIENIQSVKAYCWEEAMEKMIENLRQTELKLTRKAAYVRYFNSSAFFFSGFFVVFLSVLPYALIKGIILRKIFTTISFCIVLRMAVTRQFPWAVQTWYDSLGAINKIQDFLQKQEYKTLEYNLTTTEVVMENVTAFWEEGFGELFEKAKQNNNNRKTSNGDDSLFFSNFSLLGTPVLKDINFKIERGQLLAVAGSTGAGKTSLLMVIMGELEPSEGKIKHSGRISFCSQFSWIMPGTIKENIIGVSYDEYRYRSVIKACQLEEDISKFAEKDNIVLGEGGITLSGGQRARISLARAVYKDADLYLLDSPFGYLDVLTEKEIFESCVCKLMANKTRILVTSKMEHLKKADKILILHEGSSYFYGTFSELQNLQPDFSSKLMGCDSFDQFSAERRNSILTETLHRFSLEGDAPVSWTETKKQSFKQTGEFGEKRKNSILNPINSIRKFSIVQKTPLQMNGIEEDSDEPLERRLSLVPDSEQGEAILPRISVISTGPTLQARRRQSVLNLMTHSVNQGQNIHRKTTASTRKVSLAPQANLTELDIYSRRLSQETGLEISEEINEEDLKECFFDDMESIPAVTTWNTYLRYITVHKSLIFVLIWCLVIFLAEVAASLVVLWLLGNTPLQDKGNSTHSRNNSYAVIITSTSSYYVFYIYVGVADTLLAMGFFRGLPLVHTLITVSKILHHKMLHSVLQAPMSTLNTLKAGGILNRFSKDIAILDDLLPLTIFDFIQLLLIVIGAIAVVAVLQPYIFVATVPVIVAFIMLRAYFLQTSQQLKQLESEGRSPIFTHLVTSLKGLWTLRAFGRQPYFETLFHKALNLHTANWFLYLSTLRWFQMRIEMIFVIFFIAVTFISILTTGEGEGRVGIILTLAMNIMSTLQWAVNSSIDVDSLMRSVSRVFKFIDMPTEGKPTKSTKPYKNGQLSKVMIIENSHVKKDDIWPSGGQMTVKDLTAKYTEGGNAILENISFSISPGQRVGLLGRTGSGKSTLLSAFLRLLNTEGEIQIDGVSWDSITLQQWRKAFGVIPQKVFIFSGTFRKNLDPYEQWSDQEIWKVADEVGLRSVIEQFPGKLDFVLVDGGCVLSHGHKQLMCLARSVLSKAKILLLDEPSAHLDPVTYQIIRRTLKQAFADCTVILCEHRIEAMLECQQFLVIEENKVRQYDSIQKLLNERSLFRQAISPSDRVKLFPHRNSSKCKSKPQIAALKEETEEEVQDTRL

Compound | EC50 [1] | Maximum % activity (without co-corrector) [2] | EC50 [3] | Maximum % activity (with co-corrector) [4] | Emax [2]
4-methoxy-N-(naphthalene-1-sulfonyl)-5-(trifluoromethyl)-2,3-dihydro-1-benzofuran-3-carboxamide and 4-methoxy-N-(naphthalene-1-sulfonyl)-7-(trifluoromethyl)-2,3-dihydro-1-benzofuran-3-carboxamide [Example 40] | < 3 µM | +++ (≥150) | < 3 µM | +++ (≥350) | 
COc1ccc(C2CCC2)c2c1C(C(=O)NS(=O)(=O)c1cccc3nc(C)ccc13)CCO2 (racemic) [Example 75, 8-cyclobutyl-5-methoxy-N-(2-methylquinoline-5-sulfonyl)-3,4-dihydro-2H-1-benzopyran-4-carboxamide] | 3 to 10 µM |  | < 3 µM | +++ (≥350) | ≥ 150%
COc1ccc(Cl)c2c1[C@@H](C(=O)NS(=O)(=O)c1cccc3ccccc13)CO2 (single isomer, unassigned) [Example 67] | 3 to 10 µM |  | < 3 µM | +++ (≥350) | ≥ 150%
COc1ccc(Cl)c2c1[C@H](C(=O)NS(=O)(=O)c1cccc3ccccc13)CO2 (single isomer, unassigned) [Example 68] | 3 to 10 µM |  | < 3 µM | +++ (≥350) | ≥ 150%
COc1ccc(Br)c2c1[C@@H](C(=O)NS(=O)(=O)c1cccc3ccccc13)CO2 (single isomer, unassigned) [Example 73] | 3 to 10 µM |  | 3 to 10 µM | ++ (≥150 and <350) | 50 to 150%
COc1ccc(Br)c2c1[C@H](C(=O)NS(=O)(=O)c1cccc3ccccc13)CO2 (single isomer, unassigned) [Example 74] | < 3 µM |  | < 3 µM | +++ (≥350) | ≥ 150%
COc1ccc(C2CCC2)c2c1[C@@H](C(=O)NS(=O)(=O)c1cccc3ncccc13)CO2 (single isomer, unassigned) [Example 82] | 3 to 10 µM |  | 3 to 10 µM | +++ (≥350) | ≥ 150%
COc1ccc(C2CCC2)c2c1[C@H](C(=O)NS(=O)(=O)c1cccc3ncccc13)CO2 (single isomer, unassigned) [Example 83] | < 3 µM |  | < 3 µM | +++ (≥350) | ≥ 150%
COc1ccc(C2CCC2)c2c1[C@@H](C(=O)NS(=O)(=O)c1cccc3cnn(C)c13)CO2 (single isomer, unassigned) [Example 94] | 3 to 10 µM |  | < 3 µM | +++ (≥350) | 50 to 150%
COc1ccc(C2CCC2)c2c1[C@H](C(=O)NS(=O)(=O)c1cccc3c1CCCN3)CC(C)(C)O2 (single isomer, unassigned) [Example 97] | < 3 µM |  | < 3 µM | +++ (≥350) | ≥ 150%
COc1ccc(C2CCC2)c2c1[C@@H](C(=O)NS(=O)(=O)c1cccc3c1NCCC3)CO2 (single isomer, unassigned) [Example 98] | 3 to 10 µM |  | 3 to 10 µM | +++ (≥350) | 50 to 150%
COc1ccc(C2CCC2)c2c1OCC[C@H]2C(=O)NS(=O)(=O)c1cccc2ncccc12 (single isomer, unassigned) [Example 106] | < 3 µM |  | < 3 µM | +++ (≥350) | ≥ 150%
COc1ccc(C2CCC2)c2c1OCC[C@@H]2C(=O)NS(=O)(=O)c1cccc2ncccc12 (single isomer, unassigned) [Example 107] | 3 to 10 µM |  | 3 to 10 µM | ++ (≥150 and <350) | < 50%
O=C(NS(=O)(=O)c1cccc2ccccc12)C1(c2ccccc2)CCOc2ccc(Br)cc21 (stereo not drawn) [Example 1, 6-bromo-N-(naphthalene-1-sulfonyl)-4-phenyl-3,4-dihydro-2H-1-benzopyran-4-carboxamide] | < 3 µM |  | < 3 µM | +++ (≥350) | ≥ 150%
CCSC[C@H]1C[C@@](C(=O)NS(=O)(=O)c2cccc3ccccc23)(c2ccccc2)c2ccccc2O1 [Example 2, (2R,4R)-2-[(ethylsulfanyl)methyl]-N-(naphthalene-1-sulfonyl)-4-phenyl-3,4-dihydro-2H-1-benzopyran-4-carboxamide] | < 3 µM |  | < 3 µM | +++ (≥350) | 50 to 150%
COc1ccc2c(c1)C(C(=O)NS(=O)(=O)c1cccc3ccccc13)(c1ccccc1)CC(C)(C)O2 (stereo not drawn) [Example 3, 6-methoxy-2,2-dimethyl-N-(naphthalene-1-sulfonyl)-4-phenyl-3,4-dihydro-2H-1-benzopyran-4-carboxamide] | < 3 µM |  | < 3 µM | +++ (≥350) | ≥ 150%
COc1ccc2c(c1)C(C(=O)NS(=O)(=O)c1cccc3ccccc13)(c1ccccc1)CCO2 (stereo not drawn) [Example 4, 6-methoxy-N-(naphthalene-1-sulfonyl)-4-phenyl-3,4-dihydro-2H-1-benzopyran-4-carboxamide] | < 3 µM |  | < 3 µM | +++ (≥350) | 50 to 150%
Cc1cc2c(c(C)c1C(=O)c1ccccc1)C(C(=O)NS(=O)(=O)c1cccc3ccccc13)CCO2 (stereo not drawn) [Example 5, 6-benzoyl-5,7-dimethyl-N-(naphthalene-1-sulfonyl)-3,4-dihydro-2H-1-benzopyran-4-carboxamide] | < 3 µM |  | < 3 µM | +++ (≥350) | ≥ 150%
O=C(NS(=O)(=O)c1cccc2ccccc12)C1(c2ccccc2)COc2ccccc21 (stereo not drawn) [Example 6, N-(naphthalene-1-sulfonyl)-3-phenyl-2,3-dihydro-1-benzofuran-3-carboxamide] | < 3 µM |  | < 3 µM | +++ (≥350) | 50 to 150%
O=C(NS(=O)(=O)c1cccc2ccccc12)C1CCOc2c(Cl)cccc21 (stereo not drawn) [Example 7, 8-chloro-N-(naphthalene-1-sulfonyl)-3,4-dihydro-2H-1-benzopyran-4-carboxamide] | 3 to 10 µM |  | 3 to 10 µM | +++ (≥350) | ≥ 150%
CCC1(C(=O)NS(=O)(=O)c2cccc3ccccc23)COc2cccc(OC)c21 (stereo not drawn) [Example 8, 3-ethyl-4-methoxy-N-(naphthalene-1-sulfonyl)-2,3-dihydro-1-benzofuran-3-carboxamide] | 3 to 10 µM |  | < 3 µM | +++ (≥350) | ≥ 150%
